Experimental data as given in paper PMC11089204 (Frontiers in Pharmacology, 2024).
Values joined by “and” are separate entries in the source; they are usually repeats but may differ in a detail not shown here. Identical values can stand only once. Like-named read-outs stand apart in the source and are kept apart here.

Assays:
[1] = Pharmacokinetics and metabolites in mouse plasma after oral psilocybin; format: in vivo, C57BL/6J mice; conditions: for half-life / Cmax / Tmax: male, C57BL/6J, po, n = 5; for half-life: mouse, plasma, 3 mg/kg, read-out: elimination half-life t1/2 (mean ± SD) (converted); for Cmax: read-out: Cmax (mean ± SD); for Tmax: read-out: tmax (mean ± SD)
Method: C57BL/6J adult male mice (Janvier, Le Genest-Saint-Isle, France) were maintained in littermate pairs in standard cages (containing sawdust, a sleeping chamber, tissue paper, and a wood stick) with water and pellet food available ad libitium. The colony room was on a reversed light-dark cycle (dark phase 07:00 to 19:00) with temperature at 22°C and humidity at 50–60%. A total of 10 mice were dosed orally with either 3 mg/kg bodyweight psilocybin (n = 5) or saline solution (n = 5). Dosing and blood sampling were conducted between 09:00 and 13:00. The mouse was placed in a plastic restrainer with the tail protruding through a hole in the end of the tube. The tail was immersed in warm water for 1 min for vasodilation and then a small incision was made on the lateral tail surface near the distal tip. 50 μL of blood was massaged gently into an EDTA-coated capillary blood tube (Mircovette, Sarstedt, Nümbrecht, Germany). The first (baseline) blood sample was collected directly before compound administration via oral gavage and the mouse was then returned to the home cage. Further blood samples were collected at 15, 30, 60, and 120 min post-treatment. Each sample was drawn from the same incision site, with mice maintained in the home cage in the intervening periods. The blood samples were stored on ice and centrifuged for 10 min at 780 × g and 4°C. Subsequently, the plasma was transferred into cryotubes (Protein LoBind, Eppendorf) and stored at −80 °C until analysis. All procedures were conducted under a permit for animal experimentation (ZH038/2022) issued by the Veterinary Office Zurich in accordance with the Animal Protection Act (1978) of Switzerland. The use of psilocybin was authorized by the Federal Office of Public Health (FOPH).
Pharmacokinetic parameters were calculated using Phoenix WinNonlin software (version 8.1.0, Certara, Princeton, USA). The elimination half-life (t1/2, min) was assessed as t1/2 = ln(2)/λ, while the elimination constant was calculated by linear regression in the terminal elimination phase. The maximal plasma concentration (Cmax, ng/mL) and the time to reach this concentration (tmax, h) were direct read-outs of the graphical plots.

[2] = target: T1, human 5-HT1A receptor (Homo sapiens, UniProt P08908); test: Radioligand receptor binding, 5-HT1A; parameters: expressed in transfected cells; host or cells: HEK 293 membrane preparations; conditions: HEK 293 membranes, [3H]8-OH-DPAT
T1 sequence (P08908 1-422): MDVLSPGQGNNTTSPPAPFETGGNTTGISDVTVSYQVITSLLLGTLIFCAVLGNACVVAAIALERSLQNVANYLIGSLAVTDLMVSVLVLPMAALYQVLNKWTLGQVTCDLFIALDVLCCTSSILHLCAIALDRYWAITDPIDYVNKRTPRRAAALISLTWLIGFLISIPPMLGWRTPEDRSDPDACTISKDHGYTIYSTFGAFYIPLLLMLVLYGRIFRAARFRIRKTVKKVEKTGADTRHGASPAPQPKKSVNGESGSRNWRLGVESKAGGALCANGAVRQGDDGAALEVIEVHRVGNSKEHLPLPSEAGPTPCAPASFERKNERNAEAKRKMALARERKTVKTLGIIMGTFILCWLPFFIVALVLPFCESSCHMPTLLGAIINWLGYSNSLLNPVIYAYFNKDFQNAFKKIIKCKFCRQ

[3] = test system: human liver microsomes (HLM); test: Psilocin incubation with human liver microsomes (CYP inhibition assay); format: in vitro ADME; conditions: for metabolite concentration formed from psilocin / psilocin concentration (mean ± SD): 1,000 nM psilocin with HLM; for metabolite concentration formed from psilocin: 240 min incubation; for psilocin concentration: absence of HLM
Method: (§1) Corning UltraPool human liver microsomes (HLM) 150 (20 mg/mL), human intestinal microsomes (HIM) pool (10 mg/mL) as well as recombinant human CYP enzymes (with P450 oxidoreductase, OR) including CYP1A2+OR (0.5 nmol), CYP2B6+OR (0.5 nmol), CYP2C8+OR (1.0 nmol), CYP2C9*1+OR (1 nmol), CYP2C19+OR (0.5 nmol), CYP2D6*1+OR (0.5 nmol), CYP2E1+OR + cytochrome b5 (1 nmol), CYP3A4+OR + cytochrome b5 (0.5 nmol), MAO-A (5 mg/mL), MAO-B (5 mg/mL), and UGT1A10 (5 mg/mL) were purchased from Corning Life Sciences B.V (Amsterdam, Netherlands). All microsomes and recombinant enzyme solutions were aliquoted and stored at −80 °C until further use.
The total volume of the reaction mixture was 500 μL. […] Samples were either directly analyzed by liquid chromatography tandem mass spectrometry (LC-MS/MS) or briefly stored at −20°C until analysis.

[4] = target: T2, recombinant MAO-B (Homo sapiens, UniProt P27338); test: Incubation with recombinant MAO-B enzymes; format: in vitro ADME; conditions: 1,000 nM psilocin, rec. MAO-B
T2 construct: purchased Corning Life Sciences B.V
T2 sequence (P27338 1-520): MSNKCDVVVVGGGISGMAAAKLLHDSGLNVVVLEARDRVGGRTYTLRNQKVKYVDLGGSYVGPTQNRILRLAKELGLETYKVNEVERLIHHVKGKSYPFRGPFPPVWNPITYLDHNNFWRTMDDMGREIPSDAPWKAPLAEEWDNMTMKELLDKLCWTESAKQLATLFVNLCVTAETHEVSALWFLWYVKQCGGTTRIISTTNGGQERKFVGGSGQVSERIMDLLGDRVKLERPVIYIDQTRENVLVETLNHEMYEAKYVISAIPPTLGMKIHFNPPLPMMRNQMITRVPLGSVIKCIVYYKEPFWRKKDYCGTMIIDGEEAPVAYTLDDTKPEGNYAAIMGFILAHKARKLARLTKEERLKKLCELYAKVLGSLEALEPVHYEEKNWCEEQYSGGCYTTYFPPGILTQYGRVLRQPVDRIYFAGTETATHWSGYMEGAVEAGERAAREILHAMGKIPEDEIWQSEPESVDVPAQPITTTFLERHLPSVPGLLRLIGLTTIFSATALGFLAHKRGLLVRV
Method: as §1
The MAO inhibition assay was based on the assay described in section 2.5.1 and performed identically if not otherwise stated.

[5] = mouse plasma, 3 mg/kg psilocybin p.o.
[6] = read-out: h5-HT1A Receptor binding Ki ± SD

SMILES	half-life [1, 5] [min]	Cmax [1, 5] [ng/mL]	Tmax [1, 5] [min]	concentrations relative to psilocin (lower) ([1]; mouse plasma) [fold]	elimination half-life in mice relative to humans (shorter) ([1]; mouse versus human)	Ki [2, 6] [nM]	metabolite concentration formed from psilocin [3] [nM]	formation of metabolite from psilocin [4]	detection in mouse plasma ([1]; 3 mg/kg psilocybin p.o.)	Ki ([2]; h5-HT1A Receptor binding Ki ± SD)	psilocin concentration (mean ± SD) ([3]; after 240 min) [nM]	psilocin concentration (mean ± SD) ([3]; start of incubation)	effect of targeted inhibition of specific CYP enzymes in HLM on psilocin degradation ([3]; 1,000 nM psilocin, HLM with selective CYP inhibitors)	psilocin concentration ([3]; t = 0 min)	psilocin concentration ([3]; t = 240 min)	change of psilocin concentration [4]
O=C(O)Cc1c[nH]c2cccc(O)c12 [4-HIAA, 4-hydroxyindole-3-acetic acid]	45 ± 6.6	84.9 ± 17.7	18 ± 6.6	2	more than 2 fold	> 10000	43.0 ± 7.9	did not produce any								
OCCc1c[nH]c2cccc(O)c12 [4-HTP, 4-hydroxytryptophol]						> 10000	43.4 ± 6.0	did not produce any	could not be observed							
CN(C)CCc1c[nH]c2cccc(O)c12 [psilocin, 4-hydroxy-N,N-dimethyltryptamine]	54.6 ± 6.6	198 ± 28	18 ± 6.6							< 136 nM and 128 nM	829 ± 32	1,162 ± 146 nM	did not lead to a clear inhibition	1,141 ± 74 nM	1,096 ± 105 nM	did not visibly decrease
